# How the values were obtained:
# [1] = molecular target: T1, NKCC1 (Homo sapiens, UniProt P55011); test: Cl- influx assay in NKCC1-transfected HEK293 cells; assay type: cell-based; conditions: for Inhibition 10 μM Cl- influx (%) / Inhibition 100 μM Cl- influx (%): NKCC1-transfected HEK293 cells; for inhibition at 100 µM: HEK293, read-out: Inhibition 100 μM Cl- influx (%); for inhibition at 10 µM: HEK293, read-out: Inhibition 10 μM Cl- influx (%)
# T1 construct: host or cells: HEK293
# T1 sequence (P55011 1-1212): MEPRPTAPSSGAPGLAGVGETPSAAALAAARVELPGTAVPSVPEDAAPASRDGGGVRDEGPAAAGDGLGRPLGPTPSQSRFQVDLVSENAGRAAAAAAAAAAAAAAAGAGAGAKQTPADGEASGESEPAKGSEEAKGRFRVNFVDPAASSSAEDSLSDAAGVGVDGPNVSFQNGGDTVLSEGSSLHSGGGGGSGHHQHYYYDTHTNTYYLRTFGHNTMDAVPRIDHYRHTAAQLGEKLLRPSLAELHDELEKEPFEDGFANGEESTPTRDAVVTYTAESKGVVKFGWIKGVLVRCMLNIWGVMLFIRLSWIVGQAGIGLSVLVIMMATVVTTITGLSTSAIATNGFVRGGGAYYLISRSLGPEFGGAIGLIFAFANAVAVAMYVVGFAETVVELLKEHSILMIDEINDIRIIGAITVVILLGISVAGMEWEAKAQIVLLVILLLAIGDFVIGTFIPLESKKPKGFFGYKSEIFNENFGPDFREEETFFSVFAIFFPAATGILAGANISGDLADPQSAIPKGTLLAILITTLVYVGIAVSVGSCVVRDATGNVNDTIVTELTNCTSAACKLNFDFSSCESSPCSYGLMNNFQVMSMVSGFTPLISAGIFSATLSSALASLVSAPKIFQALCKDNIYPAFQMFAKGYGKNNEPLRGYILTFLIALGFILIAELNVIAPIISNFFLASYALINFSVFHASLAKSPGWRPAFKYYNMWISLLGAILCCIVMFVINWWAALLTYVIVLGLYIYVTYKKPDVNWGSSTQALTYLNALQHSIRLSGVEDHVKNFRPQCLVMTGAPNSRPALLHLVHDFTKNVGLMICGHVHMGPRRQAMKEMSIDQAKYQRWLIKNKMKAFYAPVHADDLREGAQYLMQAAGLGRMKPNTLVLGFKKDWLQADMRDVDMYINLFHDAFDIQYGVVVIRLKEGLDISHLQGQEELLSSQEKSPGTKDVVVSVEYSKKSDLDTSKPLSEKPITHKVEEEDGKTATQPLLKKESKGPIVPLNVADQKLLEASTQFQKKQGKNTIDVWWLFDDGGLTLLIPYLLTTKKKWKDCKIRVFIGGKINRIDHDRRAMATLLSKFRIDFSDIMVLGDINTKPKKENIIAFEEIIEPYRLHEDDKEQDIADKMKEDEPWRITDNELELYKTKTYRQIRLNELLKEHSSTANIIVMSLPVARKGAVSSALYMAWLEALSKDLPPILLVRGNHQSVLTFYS
# Method: HEK293 cells were cultured in Dulbecco’s modified Eagle’s medium (DMEM) supplemented with 10% fetal bovine serum, 1% L-glutamine, 100 U/mL penicillin, and 100 μg/mL streptomycin and maintained at 37 °C in a 5% CO2 humidified atmosphere. To assess NKCC1 and NKCC2 activity (Cl^– influx assay), 3 million HEK cells were plated in a 10 cm cell-culture dish and transfected with a transfection mixture comprising 5 mL of DMEM, 4 mL of Opti-MEM, 8 μg of DNA plasmid coding for NKCC1 (PRK-NKCC1 obtained from Medical Research Council and the University of Dundee), NKCC2 (OriGene plasmid #RC216145) subcloned in PRK5 plasmid, or mock control (empty vector), together with 8 μg of a plasmid coding for the Cl^–-sensitive variant of the membrane-targeted fluorescent protein YFP, mbYFPQS (Addgene plasmid #80742),[53] and 32 μL of Lipofectamin 2000. To assess KCC2 activity (Tl influx assay), cells were transfected with 8 μg of KCC2[54] subcloned in the PRK5 plasmid or mock control (empty vector) and 16 μL of Lipofectamin 2000. After 4 h, the cells were collected and plated in 96-well black-walled, clear-bottomed plates at a density of 2.5 × 10^4. After 48 h, cells were used for the Cl^– or Tl influx assays. All reagents were purchased from Life Technologies, unless otherwise specified.
# Transfected cells were treated with 10 μM or 100 μM bumetanide (as positive controls), DMSO (as the negative control), or with each of our compounds in 100 μL/well of a Cl^–-free hypotonic solution (67.5 mM Na^+ gluconate, 2.5 mM K^+ gluconate, 15 mM HEPES pH 7.4, 50 mM glucose, 1 mM Na2HPO4, 1 mM NaH2PO4, 1 mM MgSO4, and 1 mM CaSO4). After 30 min of incubation, plates were loaded into a Victor 3V (PerkinElmer) multiplate reader equipped with an automatic liquid injector system, and fluorescence of Cl^–-sensitive mbYFPQS was recorded with excitation at 485 nm and emission at 535 nm. For each well, fluorescence was first recorded for 20 s of the baseline and for 60 s after delivery of a NaCl concentrated solution (74 mM final concentration in the assay well). Fluorescence of Cl^–-sensitive mbYFPQS is inversely correlated to the intracellular Cl^– concentration;[53] therefore, chloride influx into the cells determined a decrease in mbYFPQS fluorescence. To represent the fluorescent traces in time, we normalized the fluorescence value for each time point to the average of the fluorescence value of the first 20 s of the baseline (ΔF/F0). To quantify the average effects as represented by the bar plots, we expressed the decrease in fluorescence upon NaCl application as the average of the last 10 s of ΔF/F0 normalized traces. Moreover, for each experiment, to account for the contribution of Cl^– changes that were dependent on transporters/exchangers other than NKCC1 or NKCC2, we subtracted the value of the last 10 s of ΔF/F0 normalized traces obtained from mock-transfected cells (either control or treated) from the respective ΔF/F0 value obtained from the cells transfected with NKCC1 or NKCC2. We then presented in the figures all the data as a percentage of the fluorescence decrease versus the value of the control DMSO.
# [2] = In vitro metabolic stability in mouse liver microsomes; conditions: tissue homogenate, pH 7.4
# Method: 1. Aqueous kinetic solubility. […]
# 3. In vitro mouse microsomial stability. […]
# microsomes (Sekisui Xenotech, LCC), 0.1M Tris-HCl buffer (pH 7.4), and 10% DMSO. The final […]
# After pre-incubation, the cofactors (NADPH, G6P, G6PDH, MgCl2 pre-dissolved in 0.1M Tris-HCl) were added to the incubation mixture and the incubation was continued at 37 °C for 1h. At each time point (0, 5, 15, 30, 60 min), 30µL of incubation mixture was diluted with 200 µL cold acetonitile spiked with 200 nM of warfarin as internal standard, followed by centrifugation at 3500 g for 30 min. The supernatant was further diluted with H2O (1:1) for analysis.
# An aliquot of 200 µl of the supernatant was removed, and the concentration of the test compound was […]
# quantified by LC-MS/MS. The percentage of the test compound remaining at each time point relative […]
# to t=0 was calculated. The half-lives (t½) were determined by a one-phase decay equation using a […]
# non-linear regression of compound concentration vs time.
# [3] = Aqueous kinetic solubility in PBS pH 7.4; assay type: physicochemical; conditions: phosphate buffered saline (PBS); aqueous kinetic solubility from 10 mM DMSO solution in PBS pH 7.4; target concentration 250 μM (final DMSO 2.5%)
# Method: 1. Aqueous kinetic solubility.
# 30 µL aliquots of 10 mM DMSO stock solution of the test compound were incubated in Phosphate
# Buffered Saline (PBS) at pH 7.4 at 25°C for 24h. After centrifugation the dissolved compound in the
# supernatant was quantified by LC-MS/MS.
# Aqueous kinetic solubility was determined by UV quantification at
# 215 nm. […]
SMILES,Inhibition 10 μM Cl- influx (%) [1],inhibition at 100 µM [1] [%],half-life at 5 μM [2] [min],solubility at 24 h [3] [µM],Inhibition 100 μM Cl- influx (%) [1],inhibition at 10 µM [1] [%]
"CCCCCCCCNc1ccc(C(=O)O)cc1S(N)(=O)=O [Compound 17, 4-(Octylamino)-3-sulfamoyl-benzoic Acid]",Inactive,24 ± 8.5,18,> 250,–,–
"CCCCCCNc1ccc(C(=O)O)cc1S(=O)(=O)NC [Compound 20, 4-(Hexylamino)-3-(methylsulfamoyl)benzoic Acid]",Inactive,–,29,247,Inactive,–
"CCCCCCCCNc1ccc(C(=O)O)cc1S(=O)(=O)NC [Compound 21, 3-(-N-Methylsulfamoyl)-4-(octylamino)benzoic Acid]",–,20.1 ± 14.7,12,53,–,16.2 ± 4.8
"CCCCCCNc1ccc(C(=O)O)cc1S(=O)(=O)N(C)C [Compound 24, 3-(-N,N-Dimethylsulfamoyl)-4-(hexylamino)benzoic Acid]",Inactive,19.8 ± 5.2,17,243,–,–
"CCCCCCCCNc1ccc(C(=O)O)cc1S(=O)(=O)N(C)C [Compound 25, 3-(-N,N-Dimethylsulfamoyl)-4-(octylamino)benzoic Acid]",Inactive,70.6 ± 9.2,13,52,–,–
"CN(C)S(=O)(=O)c1cc(C(=O)O)ccc1NCCC(C)(C)C [Compound 26, 4-(-N-3,3-Dimethylbutylamino)-3-(dimethylsulfamoyl)benzoic Acid]",Inactive,–,> 60,> 250,Inactive,–
"CN(C)S(=O)(=O)c1cc(C(=O)O)ccc1NCCCC(F)(F)F [Compound 27, 3-(-N,N-Dimethylsulfamoyl)-4-(4,4,4-trifluorobutylamino)benzoic Acid]",Inactive,1.9 ± 5,> 60,245,–,–
"CN(C)S(=O)(=O)c1cc(C(=O)O)ccc1NCCCCCC(F)(F)F [Compound 28, 3-(-N,N-Dimethylsulfamoyl)-4-(6,6,6-trifluorohexylamino)benzoic Acid]",Inactive,12.6 ± 4.1,> 60,249,–,–
"COCCNc1ccc(C(=O)O)cc1S(=O)(=O)N(C)C [Compound 29, 3-(-N,N-Dimethylsulfamoyl)-4-(2-methoxyethylamino)benzoic Acid]",–,4.1 ± 5,> 60,237,–,1.4 ± 2.7
"COCCCCNc1ccc(C(=O)O)cc1S(=O)(=O)N(C)C [Compound 30, 3-(-N,N-Dimethylsulfamoyl)-4-(4-methoxybutylamino)benzoic Acid]",Inactive,5.2 ± 3.7,> 60,247,–,–
